The source of these data is ChEMBL document CHEMBL3991601, “The target landscape of clinical kinase drugs” (Science, 2017).

Activity calls are given as the source filed them. For most assays here, no stated cut-off is given here; in the data, actives have a measured Kd and inactives only a lower limit.

Test [1] has as its target Ephrin type-A receptor 5 (Homo sapiens, UniProt P54756).
In test [2] the target is Ephrin type-A receptor 2 (Homo sapiens, UniProt P29317).
Test [3] addresses Mitogen-activated protein kinase kinase kinase 4 (Homo sapiens, UniProt Q9Y6R4).
In test [4] the target is T1, MAP kinase-activated protein kinase 5 (Homo sapiens, UniProt Q8IW41).
T1 sequence (Q8IW41 whole entry): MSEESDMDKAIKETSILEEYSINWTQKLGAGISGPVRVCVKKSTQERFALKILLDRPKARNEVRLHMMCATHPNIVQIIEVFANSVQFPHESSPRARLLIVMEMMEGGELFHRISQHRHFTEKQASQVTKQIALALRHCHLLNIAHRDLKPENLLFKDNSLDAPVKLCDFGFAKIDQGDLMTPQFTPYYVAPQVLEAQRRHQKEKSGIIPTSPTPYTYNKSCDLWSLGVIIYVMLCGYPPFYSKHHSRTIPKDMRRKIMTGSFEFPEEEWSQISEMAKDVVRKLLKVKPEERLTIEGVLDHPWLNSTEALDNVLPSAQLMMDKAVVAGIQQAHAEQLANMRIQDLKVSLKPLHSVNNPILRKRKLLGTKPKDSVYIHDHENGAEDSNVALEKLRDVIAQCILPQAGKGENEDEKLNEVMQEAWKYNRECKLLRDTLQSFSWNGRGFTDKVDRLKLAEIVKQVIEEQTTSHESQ

Test [5] has as its target Mitogen-activated protein kinase kinase kinase 20 (Homo sapiens, UniProt Q9NYL2).
The target in test [6] is T2, Non-receptor tyrosine-protein kinase TNK1 (Homo sapiens, UniProt Q13470).
T2 sequence (Q13470 whole entry): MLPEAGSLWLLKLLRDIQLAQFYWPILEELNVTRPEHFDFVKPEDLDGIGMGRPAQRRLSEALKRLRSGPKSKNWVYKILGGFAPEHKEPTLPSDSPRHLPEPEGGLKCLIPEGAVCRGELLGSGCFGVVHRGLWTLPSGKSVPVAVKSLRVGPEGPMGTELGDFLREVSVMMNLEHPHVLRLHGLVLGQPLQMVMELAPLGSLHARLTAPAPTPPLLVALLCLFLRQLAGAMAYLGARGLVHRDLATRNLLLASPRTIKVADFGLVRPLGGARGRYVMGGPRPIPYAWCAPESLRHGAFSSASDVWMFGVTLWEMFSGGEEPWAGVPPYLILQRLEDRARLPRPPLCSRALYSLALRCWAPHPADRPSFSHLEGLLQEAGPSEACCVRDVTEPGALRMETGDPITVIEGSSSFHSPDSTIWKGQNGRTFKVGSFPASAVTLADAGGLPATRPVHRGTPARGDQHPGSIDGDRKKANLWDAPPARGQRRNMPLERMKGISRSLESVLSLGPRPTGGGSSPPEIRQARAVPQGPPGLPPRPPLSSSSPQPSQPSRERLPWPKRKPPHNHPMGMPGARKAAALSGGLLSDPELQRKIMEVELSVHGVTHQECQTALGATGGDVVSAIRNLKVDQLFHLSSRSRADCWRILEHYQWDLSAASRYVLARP

For test [7], the target named is Calcium/calmodulin-dependent protein kinase type II subunit gamma (Homo sapiens, UniProt Q13555).
In test [8] the target is Serine/threonine-protein kinase N2 (Homo sapiens, UniProt Q16513).
Chain of Serine/threonine-protein kinase N2 (Q16513 whole entry): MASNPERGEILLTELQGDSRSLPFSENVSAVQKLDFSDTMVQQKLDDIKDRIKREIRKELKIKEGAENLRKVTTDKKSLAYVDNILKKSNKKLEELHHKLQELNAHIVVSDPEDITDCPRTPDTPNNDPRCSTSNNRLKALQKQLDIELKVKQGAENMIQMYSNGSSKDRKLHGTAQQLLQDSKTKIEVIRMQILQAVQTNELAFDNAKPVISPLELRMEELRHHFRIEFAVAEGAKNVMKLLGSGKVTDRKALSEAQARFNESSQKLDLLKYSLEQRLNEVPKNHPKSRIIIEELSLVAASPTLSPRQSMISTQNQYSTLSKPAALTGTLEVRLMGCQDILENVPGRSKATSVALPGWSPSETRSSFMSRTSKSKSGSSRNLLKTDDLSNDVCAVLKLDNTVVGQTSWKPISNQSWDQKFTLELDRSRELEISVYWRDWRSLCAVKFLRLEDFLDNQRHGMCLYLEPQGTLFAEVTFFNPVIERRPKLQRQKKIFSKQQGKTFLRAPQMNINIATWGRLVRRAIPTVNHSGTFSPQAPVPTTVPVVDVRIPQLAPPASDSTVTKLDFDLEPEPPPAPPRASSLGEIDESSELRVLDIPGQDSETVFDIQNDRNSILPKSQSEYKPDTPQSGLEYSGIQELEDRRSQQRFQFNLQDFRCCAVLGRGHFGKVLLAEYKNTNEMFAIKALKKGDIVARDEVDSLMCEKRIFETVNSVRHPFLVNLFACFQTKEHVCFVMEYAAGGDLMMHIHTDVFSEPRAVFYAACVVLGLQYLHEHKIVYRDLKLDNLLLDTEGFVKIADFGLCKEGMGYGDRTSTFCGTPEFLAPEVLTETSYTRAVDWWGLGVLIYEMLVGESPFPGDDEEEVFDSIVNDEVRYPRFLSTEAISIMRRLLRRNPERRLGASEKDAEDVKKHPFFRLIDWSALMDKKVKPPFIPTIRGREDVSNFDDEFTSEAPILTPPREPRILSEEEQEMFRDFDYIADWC
Test [9] addresses Non-receptor tyrosine-protein kinase TYK2 (Homo sapiens, UniProt P29597).
Test [10] addresses Serine/threonine-protein kinase/endoribonuclease IRE2 (Homo sapiens, UniProt Q76MJ5).
Test [11] addresses BMP-2-inducible protein kinase (Homo sapiens, UniProt Q9NSY1).
In test [12] the target is STE20-like serine/threonine-protein kinase (Homo sapiens, UniProt Q9H2G2).
Test [13] concerns the target T3, Signal recognition particle receptor subunit alpha (Homo sapiens, UniProt P08240).
T3 sequence (P08240 whole entry): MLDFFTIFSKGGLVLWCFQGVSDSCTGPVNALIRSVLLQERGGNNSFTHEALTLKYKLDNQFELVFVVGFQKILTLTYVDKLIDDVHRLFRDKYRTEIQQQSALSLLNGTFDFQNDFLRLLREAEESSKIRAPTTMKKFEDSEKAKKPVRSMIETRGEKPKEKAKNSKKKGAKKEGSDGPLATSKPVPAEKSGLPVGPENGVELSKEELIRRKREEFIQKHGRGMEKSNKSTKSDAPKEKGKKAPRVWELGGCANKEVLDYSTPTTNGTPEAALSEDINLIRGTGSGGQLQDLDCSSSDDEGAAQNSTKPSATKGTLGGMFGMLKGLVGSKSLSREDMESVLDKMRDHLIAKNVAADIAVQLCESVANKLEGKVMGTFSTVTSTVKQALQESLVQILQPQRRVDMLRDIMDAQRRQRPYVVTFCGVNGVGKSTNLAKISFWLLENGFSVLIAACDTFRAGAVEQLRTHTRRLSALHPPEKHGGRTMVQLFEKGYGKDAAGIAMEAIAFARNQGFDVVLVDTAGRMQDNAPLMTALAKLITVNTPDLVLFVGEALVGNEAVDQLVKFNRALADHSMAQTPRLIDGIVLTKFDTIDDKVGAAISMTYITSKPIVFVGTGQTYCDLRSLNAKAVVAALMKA

Test [14] deals with Mitogen-activated protein kinase 10 (Homo sapiens, UniProt P53779).

Chain of BMP-2-inducible protein kinase (Q9NSY1 whole entry): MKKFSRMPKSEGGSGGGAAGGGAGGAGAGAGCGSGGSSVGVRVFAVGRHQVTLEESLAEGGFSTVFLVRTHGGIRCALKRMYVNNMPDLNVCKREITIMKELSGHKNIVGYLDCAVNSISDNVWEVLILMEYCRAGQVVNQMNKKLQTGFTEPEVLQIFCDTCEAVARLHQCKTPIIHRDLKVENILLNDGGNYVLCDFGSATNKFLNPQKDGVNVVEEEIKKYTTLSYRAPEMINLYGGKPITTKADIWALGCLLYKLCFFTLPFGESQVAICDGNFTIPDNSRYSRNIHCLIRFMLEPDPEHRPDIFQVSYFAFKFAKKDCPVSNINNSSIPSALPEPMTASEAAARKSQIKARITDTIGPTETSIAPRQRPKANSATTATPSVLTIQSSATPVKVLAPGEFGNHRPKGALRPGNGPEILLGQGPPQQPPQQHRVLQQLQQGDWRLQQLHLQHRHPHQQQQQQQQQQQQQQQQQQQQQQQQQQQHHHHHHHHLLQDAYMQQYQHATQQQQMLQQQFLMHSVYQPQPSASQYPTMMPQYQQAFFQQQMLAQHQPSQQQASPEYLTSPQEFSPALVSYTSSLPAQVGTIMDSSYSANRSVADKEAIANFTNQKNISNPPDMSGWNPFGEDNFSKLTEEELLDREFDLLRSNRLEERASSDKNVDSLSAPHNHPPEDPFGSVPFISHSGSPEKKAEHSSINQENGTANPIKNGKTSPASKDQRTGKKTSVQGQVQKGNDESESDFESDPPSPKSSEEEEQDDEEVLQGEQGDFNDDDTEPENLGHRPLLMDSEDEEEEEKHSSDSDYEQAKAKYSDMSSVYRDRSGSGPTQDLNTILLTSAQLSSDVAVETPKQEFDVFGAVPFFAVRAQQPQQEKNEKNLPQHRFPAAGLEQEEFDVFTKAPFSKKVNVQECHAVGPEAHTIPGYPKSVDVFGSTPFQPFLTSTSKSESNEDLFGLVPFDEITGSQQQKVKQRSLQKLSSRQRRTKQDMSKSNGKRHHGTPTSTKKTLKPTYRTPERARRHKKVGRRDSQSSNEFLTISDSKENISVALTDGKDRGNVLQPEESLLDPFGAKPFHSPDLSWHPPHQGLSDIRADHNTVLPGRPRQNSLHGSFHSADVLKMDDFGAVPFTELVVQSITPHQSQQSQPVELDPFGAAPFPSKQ
Chain of Mitogen-activated protein kinase kinase kinase 4 (Q9Y6R4 whole entry): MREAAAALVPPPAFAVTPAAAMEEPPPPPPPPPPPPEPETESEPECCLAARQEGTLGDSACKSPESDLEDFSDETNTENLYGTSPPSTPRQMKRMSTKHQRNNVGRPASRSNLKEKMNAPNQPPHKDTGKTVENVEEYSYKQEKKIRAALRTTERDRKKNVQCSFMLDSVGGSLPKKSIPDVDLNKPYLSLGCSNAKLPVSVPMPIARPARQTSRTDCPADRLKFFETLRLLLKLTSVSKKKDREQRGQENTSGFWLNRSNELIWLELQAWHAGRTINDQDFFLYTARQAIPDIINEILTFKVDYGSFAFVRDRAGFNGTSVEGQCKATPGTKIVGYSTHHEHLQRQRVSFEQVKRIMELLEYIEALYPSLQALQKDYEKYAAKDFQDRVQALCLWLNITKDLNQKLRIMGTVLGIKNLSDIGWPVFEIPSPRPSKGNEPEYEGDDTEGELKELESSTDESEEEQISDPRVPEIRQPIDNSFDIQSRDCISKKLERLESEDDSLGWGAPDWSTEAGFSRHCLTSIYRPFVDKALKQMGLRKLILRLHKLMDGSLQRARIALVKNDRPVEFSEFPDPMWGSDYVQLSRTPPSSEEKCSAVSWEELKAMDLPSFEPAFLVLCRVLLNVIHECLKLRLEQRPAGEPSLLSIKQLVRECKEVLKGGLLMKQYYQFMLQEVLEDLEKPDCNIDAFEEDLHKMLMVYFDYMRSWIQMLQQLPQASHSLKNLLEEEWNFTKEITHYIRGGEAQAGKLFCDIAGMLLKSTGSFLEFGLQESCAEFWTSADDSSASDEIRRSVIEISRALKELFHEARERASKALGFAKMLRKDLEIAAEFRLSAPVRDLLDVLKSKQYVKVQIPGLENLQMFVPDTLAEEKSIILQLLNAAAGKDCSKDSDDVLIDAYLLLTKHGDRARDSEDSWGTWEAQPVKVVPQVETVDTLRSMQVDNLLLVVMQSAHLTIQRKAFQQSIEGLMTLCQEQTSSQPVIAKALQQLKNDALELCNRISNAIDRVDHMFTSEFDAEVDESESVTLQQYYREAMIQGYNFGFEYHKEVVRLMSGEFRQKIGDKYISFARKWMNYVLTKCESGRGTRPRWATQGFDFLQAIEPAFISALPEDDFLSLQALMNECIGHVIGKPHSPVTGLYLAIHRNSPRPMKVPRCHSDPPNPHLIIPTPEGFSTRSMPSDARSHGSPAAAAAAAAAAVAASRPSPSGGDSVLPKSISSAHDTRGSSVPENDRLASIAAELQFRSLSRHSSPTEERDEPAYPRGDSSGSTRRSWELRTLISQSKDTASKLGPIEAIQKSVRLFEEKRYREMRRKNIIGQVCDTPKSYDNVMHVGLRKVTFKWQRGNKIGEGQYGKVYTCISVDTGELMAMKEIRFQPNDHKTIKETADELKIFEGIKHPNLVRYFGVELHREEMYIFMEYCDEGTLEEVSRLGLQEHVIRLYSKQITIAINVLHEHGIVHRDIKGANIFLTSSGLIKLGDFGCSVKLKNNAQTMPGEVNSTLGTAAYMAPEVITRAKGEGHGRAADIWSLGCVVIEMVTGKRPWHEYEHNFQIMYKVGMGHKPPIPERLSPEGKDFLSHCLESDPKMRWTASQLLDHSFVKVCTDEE
Chain of Ephrin type-A receptor 2 (P29317 whole entry): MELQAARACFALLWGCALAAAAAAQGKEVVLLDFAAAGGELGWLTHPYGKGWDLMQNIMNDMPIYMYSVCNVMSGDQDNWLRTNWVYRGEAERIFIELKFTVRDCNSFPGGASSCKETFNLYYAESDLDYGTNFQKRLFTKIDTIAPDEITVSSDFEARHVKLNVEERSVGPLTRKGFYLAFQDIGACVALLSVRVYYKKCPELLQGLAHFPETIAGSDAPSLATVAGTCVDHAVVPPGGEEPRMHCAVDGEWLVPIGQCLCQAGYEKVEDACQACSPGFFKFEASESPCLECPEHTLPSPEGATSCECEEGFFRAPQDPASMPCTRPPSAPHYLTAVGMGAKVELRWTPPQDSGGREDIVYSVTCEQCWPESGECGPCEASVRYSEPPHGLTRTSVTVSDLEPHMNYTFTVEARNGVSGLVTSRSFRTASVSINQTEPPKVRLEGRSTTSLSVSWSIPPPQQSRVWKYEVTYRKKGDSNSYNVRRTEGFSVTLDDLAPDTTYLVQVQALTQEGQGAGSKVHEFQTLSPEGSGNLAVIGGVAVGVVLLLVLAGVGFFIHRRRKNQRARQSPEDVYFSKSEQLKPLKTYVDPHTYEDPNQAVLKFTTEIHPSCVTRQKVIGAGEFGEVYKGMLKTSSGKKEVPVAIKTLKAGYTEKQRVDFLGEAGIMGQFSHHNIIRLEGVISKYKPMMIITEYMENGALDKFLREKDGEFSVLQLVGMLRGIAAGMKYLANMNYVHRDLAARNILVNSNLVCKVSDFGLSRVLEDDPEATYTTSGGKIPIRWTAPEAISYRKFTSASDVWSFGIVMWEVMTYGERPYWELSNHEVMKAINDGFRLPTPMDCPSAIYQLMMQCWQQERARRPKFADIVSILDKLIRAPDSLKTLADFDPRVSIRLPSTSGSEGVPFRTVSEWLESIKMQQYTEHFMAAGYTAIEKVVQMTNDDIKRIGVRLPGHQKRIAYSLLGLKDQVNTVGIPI

In general, Kd refers to the concentration at which binding is half-saturated. Regarding `O=C(O)c1ccc2c(c1)nc(Nc1cccc(Cl)c1)c1ccncc12` [SILMITASERTIB], the Kd in test [1], in test [2], in [3], in test [4], in test [5] and in [6] was > 30 µM (inactive) each time. Besides, the Kd in test [7] was > 30 µM (inactive); in test [8] it was > 30 µM (inactive); in test [9], 2.38 µM (active); in test [10], > 30 µM (inactive); in test [11], > 30 µM (inactive); in [12], 0.22 µM (active). Further, the Kd in [13] and in [14] was > 30 µM (inactive) each time.
Turning to `COc1cc2ncnc(Nc3ccc(O)cc3)c2cc1OC` [WHI-P131], the Kd in [1], in test [2], in test [3], in test [4], in test [5] and in test [6] was > 30 µM (inactive) each time. In addition, the Kd in test [7] was > 30 µM (inactive); in test [8], > 30 µM (inactive); in test [9], > 30 µM (inactive); in test [10], > 30 µM (inactive); in test [11] it was > 30 µM (inactive); in test [12], 4.37 µM (active). Also, the Kd in test [13] and in test [14] was > 30 µM (inactive) each time.
As for `CNC(=O)c1ccc(Nc2ncc(C(F)(F)F)c(NCc3nccnc3N(C)S(C)(=O)=O)n2)cc1` [DEFACTINIB], the Kd in [1] is > 30 µM (inactive); in [2], > 30 µM (inactive); in [3] it was > 30 µM (inactive); in [4], > 30 µM (inactive); in test [5], > 30 µM (inactive); in test [6], 11.3 µM (active). For the same compound, the Kd was > 30 µM (inactive) in test [7]; > 30 µM (inactive) in test [8]; > 30 µM (inactive) in test [9]; > 30 µM (inactive) in [10]; > 30 µM (inactive) in test [11]; 41 µM (active) in test [12]. Also, the Kd in test [13] and in [14] was > 30 µM (inactive) each time.
With `CC[C@@](C)(Nc1ccnc(-c2c[nH]c3ncccc23)n1)C(=O)NCC(F)(F)F` [DECERNOTINIB], the Kd in test [1] was > 30 µM (inactive); in [2] it was > 30 µM (inactive); in [3] it was > 30 µM (inactive); in test [4], > 30 µM (inactive); in test [5] it was > 30 µM (inactive); in test [6], 0.046 µM. In addition, the Kd in test [7] is 14.3 µM; in test [8] it was > 30 µM (inactive); in test [10], > 30 µM (inactive); in test [11], 5.75 µM (active); in test [12], 0.058 µM (active); in test [13], > 30 µM (inactive). Besides, the Kd in test [14] was > 30 µM (inactive).
Turning to `C[C@@H]1COC(Nc2ccc3ncnc(Nc4ccc(OCc5nccs5)c(Cl)c4)c3c2)=N1` [VARLITINIB], the Kd in test [1], in test [2], in test [3], in [4], in [5] and in test [6] was > 30 µM (inactive) in each case. Also, the Kd in test [7], in test [8], in test [9], in test [10], in test [11] and in test [12] was > 30 µM (inactive) throughout. In addition, the Kd in test [13] and in test [14] was > 30 µM (inactive) in each case.
For the compound `Cn1c(=O)c(F)c(Nc2ccc(I)cc2F)c2c(=O)n(C[C@@H](O)CO)cnc21` [TAK-733], the Kd in test [1], in [2], in test [3], in test [4], in test [5] and in [6] was > 30 µM (inactive) each time. For the same compound, the Kd in [7], in [8], in [9], in test [10], in [11] and in test [12] was > 30 µM (inactive) in each case. In addition, the Kd in [13] and in test [14] was > 30 µM (inactive) in each case.
As to `Cc1c(Cn2c(C)nc3c(C(=O)O)cc(N4CCOCC4)cc32)cccc1C(F)(F)F` [GSK-2636771], the Kd in test [1], in test [2], in test [3], in [4], in test [5] and in [6] was > 30 µM (inactive) throughout. In addition, the Kd in test [7], in [8], in test [9], in test [10], in [11] and in [12] was > 30 µM (inactive) in each case. Besides, the Kd in [13] and in [14] was > 30 µM (inactive) in each case.
For the compound `Cc1ccc(C(=O)Nc2ccc(Oc3cc4cnn(C)c4cc3-c3cn[nH]c3)c(F)c2)c(=O)n1-c1ccc(F)cc1` [MERESTINIB], the Kd in [1], in test [2], in [3], in [4], in test [5] and in test [6] was > 30 µM (inactive) each time. Besides, the Kd in test [7], in [8], in [9], in test [10], in test [11] and in [12] was > 30 µM (inactive) throughout. Besides, the Kd in test [13] and in test [14] was > 30 µM (inactive) in each case.
On to `COc1ccc(-c2ccc3ncc4c(c3c2)n(-c2ccc(N3CCNCC3)c(C(F)(F)F)c2)c(=O)n4C)cn1` [BGT-226 FREE BASE], for which the Kd in [1], in test [2], in [3], in test [4], in test [5] and in test [6] was > 30 µM (inactive) each time. For the same compound, the Kd in test [7], in test [8], in test [9], in [10], in test [11] and in test [12] was > 30 µM (inactive) in each case. Also, in [14], the Kd was > 30 µM (inactive).
